How the values were obtained:
[1] = tested on: Arabidopsis seedlings; test: Seedling growth assay on trehalose with or without Val A; format: in vivo, Arabidopsis thaliana; settings: for sensitivity to trehalose, root length: with Val A
Description: FIG. 3: Growth phenotypes of AtTRE1 mutants on trehalose. Panel A, GT tre KO lines and wt Ler with Val A. Panel B, SA TRE OX lines and wt Col with Val A. Panel C, GT tre KO lines and wt Ler without Val A. Panel D, SA TRE OX lines and wt Col without Val A. Approximately 30 seedlings/treatment were grown on vertical plates, 1× MS without suc, in a 12 hours-12 hours day/night cycle, for 10 days with 0, 0.5, 1, 5, 10, or 25 mM trehalose. Data are means±SE.
FIG. 4: Growth phenotypes of AtTRE1 mutants on high trehalose. Seedlings grown in the same conditions as described in FIG. 3, without Val A, and with higher concentration of trehalose: 50, 100, 150, and 200 mM. Representative seedlings are shown.
Vapor-sterilized seeds were sown after a 48-hour stratification period in vertically or horizontally oriented Petri dishes on a full strength (or mentioned otherwise) Murashige and Skoog Salt Mixture including vitamins (MS) medium (4.3 g/l) with MES (0.5 g/l) and solidified with Phytagar (8 g/l) (Duchefa, Haarlem, The Netherlands). The media was enriched with sucrose/glucose (0-6%) or trehalose, depending on the tested conditions, which are specified. Val A was added in a concentration of 10 μM.
In our growth assay, no extra sugar was added to the media.

[2] = tested on: Arabidopsis seedlings; settings: absence of Val A; cited from earlier work
[3] = target: T1, trehalase (Arabidopsis thaliana, UniProt Q9SU50); settings: cited from earlier work
T1 sequence (Q9SU50 1-626): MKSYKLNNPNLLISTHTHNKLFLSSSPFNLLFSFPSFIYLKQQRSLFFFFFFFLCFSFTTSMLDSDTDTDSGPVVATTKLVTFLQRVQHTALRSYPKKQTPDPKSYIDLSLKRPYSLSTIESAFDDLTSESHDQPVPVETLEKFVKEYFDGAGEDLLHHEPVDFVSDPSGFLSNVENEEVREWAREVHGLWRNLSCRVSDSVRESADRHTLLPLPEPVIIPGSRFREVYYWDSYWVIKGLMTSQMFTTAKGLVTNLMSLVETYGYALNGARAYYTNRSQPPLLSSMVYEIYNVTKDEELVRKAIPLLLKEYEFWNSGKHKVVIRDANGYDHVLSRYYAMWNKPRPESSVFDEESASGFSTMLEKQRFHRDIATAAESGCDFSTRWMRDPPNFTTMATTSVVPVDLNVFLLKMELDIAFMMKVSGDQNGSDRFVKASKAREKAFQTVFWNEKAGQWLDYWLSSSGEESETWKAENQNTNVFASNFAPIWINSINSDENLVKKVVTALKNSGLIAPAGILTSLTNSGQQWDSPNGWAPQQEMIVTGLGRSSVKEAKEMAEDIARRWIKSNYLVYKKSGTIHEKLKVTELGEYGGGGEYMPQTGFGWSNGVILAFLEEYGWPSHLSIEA

[4] = tested on: plants; settings: Val A treatment, cited from earlier work

Row | SMILES | sensitivity to trehalose, root length ([1]; Col wild-type plants, 10 mM trehalose) | development with increasing trehalose concentrations ([1]; GT tre KO mutants versus wild-type Ler, without Val A) | sensitivity to trehalose, root length ([1]; Ler wild-type plants) | resistance to higher trehalose levels ([1]; SA TRE OX plants versus wild-type controls, in the presence of Val A) | sensitivity to high trehalose concentrations ([1]; SA TRE OX plants versus wild-type seedlings, without Val A, up to 200 mM) | root growth and development of wild-type seedlings ([1]; gradually increased trehalose (0-25 mM) in the presence of Val A 10 μM, no extra sugar, 10 days) | development of wild-type seedlings on high trehalose concentrations [2] | inhibition of trehalase activity in the OX lines ([1]; Val A 10 μM, SA TRE OX lines, concluded from growth on trehalose) | trehalase activity [3] | phytotoxicity ([4]; adult plants) | phenotypic irregularities in seedlings ([4]; seedlings)
1 | OC[C@H]1O[C@H](O[C@H]2O[C@H](CO)[C@@H](O)[C@H](O)[C@H]2O)[C@H](O)[C@@H](O)[C@@H]1O [trehalose, α-D-glucopyranosyl-1,1-α-D-glucopyranoside] | more dramatic decrease in root length | significantly more affected in development | rather gradual inhibitory effect | significantly more resistant | insensitive | increased inhibition of root growth and development | arrest with development shortly after germination |  |  |  | 
2 | OCC1=C[C@@H](N[C@H]2C[C@H](CO)[C@@H](O[C@H]3O[C@@H](CO)[C@H](O)[C@@H](O)[C@@H]3O)[C@H](O)[C@H]2O)[C@H](O)[C@@H](O)[C@@H]1O [Validamycin A] |  |  |  |  |  |  |  | not sufficient to inhibit increased trehalase activity | specifically inhibits trehalase activity | causes phytotoxicity | no phenotypic irregularities

Source: patent US20120005774A1, “USE OF TREHALASE TO OBTAIN DROUGHT RESISTANCE IN PLANTS” (KATHOLIEKE UNIVERSITEIT LEUVEN, K.U. LEUVEN R & D, priority 2009, published 2012)
